Legend:
cells = assay: Chemosensitizing of an anti-cancer agent by a co-administered redox clamping agent (FIG. 2); format: cell-based
Source text: The present invention further provides a method of reducing the effective dose of an anti-cancer agent necessary to be effective against cancer comprising administering a redox clamping agent in conjunction with an anti-cancer agent. It is preferred that the redox clamping agent is Mesna or DMSA. Redox clamping agents have the ability to maintain cells in a selected redox state. […] Redox clamping agents are useful in enhancing the therapeutic activity of chemotherapeutic agents such as butyrate that are dependent upon the redox state of the cell. Redox clamping agents are further useful in controlling hyperproliferation of cells and conditions associated with abnormal fluctuations in the redox state of cells. In one aspect, this invention provides a method of treating cancerous tumors comprising administering an effective dose of an anti-cancer agent in conjunction with a redox clamping agent, wherein the redox clamping agent acts as a chemoenhancer or a chemosensitizer. […] The administration of Mesna in conjunction with an anti-cancer agent may be as separate compounds or in a composition formulated and titrated to a dose and in a concentration that would achieve the optimal therapeutic dose of the anti-cancer agent providing a higher tumor cell kill with a lower dose of the anti-cancer agent than the typical therapeutic dose administered to a patient. […]

H4 Rat Hepatoma cells = assay: Stress-induced antioxidant upswing in H4 Rat Hepatoma cells after hydrogen peroxide; format: cell-based; conditions: 100 uM hydrogen peroxide for two hours, medium replaced; determined after 24 hours in culture
Method: To further exemplify the redox clamping properties of Mesna, stress was induced in H4 Rat Hepatoma cells by treatment with 100 uM hydrogen peroxide for two hours and then the medium was removed and replaced with an anti-cancer agent. The cellular viability, as well as glutathione and metallothionein levels were determined after 24 hours in culture. […] The inhibition of stress induced upswing in antioxidant levels is characteristic of redox clamping agents.
In all of the experiments associated with the investigation of Mesna as a redox clamping agent, as a stand-alone anticancer agent as well as a chemosensitizer, the cell culture medium used was Swim's S-77 medium containing 12 uM cystine, instead of conventional levels of this amino acid (i.e., 50 uM). All other components of the medium were maintained at conventional concentrations. […] The ability of cystine to supply cells with cysteine, which then function as a precursor amino acid for glutathione synthesis, is thought to be responsible for the abnormally high basal levels of glutathione in cultured tumor cell lines.

Human LNCaP cells = assay: Two-step arsenic then Mesna treatment of human LNCaP cells: apoptosis and glutathione levels (FIG. 1); format: cell-based
Method: In one aspect, the present invention further provides a method of using a redox clamping agent as a chemosensitizer comprising contacting tumor cells with a specific class of cytotoxic agent for a period of time, preferably between 2 and 4 hours, and then washing the agent from the cells and administering the redox clamping agent. It is preferred that the redox clamping agent is Mesna. The cytotoxic or anti-cancer agents used in this design would be those such as arsenic, hydrogen peroxide and other anti-cancer agents that are known to induce a cytotoxic effect by interacting with, depleting or sequestering cellular thiols. During the two to four hour treatment these anti-cancer agents deplete cellular thiols and induce apoptotic mechanisms in the cells. However, the stress-response that is induced in the cells by these anti-cancer agents also up-regulates the production of antioxidants such as glutathione and metallothionein. These antioxidants function as potent inhibitors of apoptosis. If redox clamping agents are added after the apoptotic mechanisms are initiated, but prior to the antioxidant rebound, the redox clamping agents will function in two ways to enhance the cytotoxic effects of the anti-cancer agents. It is preferred that the redox clamping agent be Mesna, which is a thiol with low reducing potential. First, the redox clamping agents will permit the progression of apoptotic signals and the mechanisms required to mediate cell death. Secondly, the redox clamping agents will promote the apoptotic response by dramatically attenuating the antioxidant “rebound” that is associated in the inhibition of apoptosis. Redox clamping agents chemically interact with the anti-cancer agent or oppose aspects of the early stress-response that is induced by pure oxidants. Therefore, a two-step treatment protocol is required.
Human LNCaP cells, treated with 100 uM arsenic for 2 hours then washed and re-fed with normal medium, develop an elevation in cellular glutathione levels over a 24-hour period. Since exogenous antioxidants are known to be potent inhibitors of apoptotic mechanism, it is believed that internally-produced antioxidants such as glutathione function in a similar manner. […] Although Mesna increases apoptosis alone, the low concentrations of Mesna utilized in this two-step treatment protocol increased apoptosis minimally i.e., to 11 percent from a background of 3 to 5 percent in untreated cells.
(§1) In all of the experiments associated with the investigation of Mesna as a redox clamping agent, as a stand-alone anticancer agent as well as a chemosensitizer, the cell culture medium used was Swim's S-77 medium containing 12 uM cystine, instead of conventional levels of this amino acid (i.e., 50 uM). […]

human tumor cell lines = assay: Growth inhibition of human tumor cell lines in culture; format: cell-based
Source text: The present invention provides a method of treating lymphoma, ovarian cancer, colorectal cancer, or gastric cancer comprising administering an effective amount of Mesna to a patient with lymphoma, ovarian cancer, colorectal cancer or gastric cancer. Mesna inhibits the growth of several human tumor cell lines in culture, and there are no strict relationships between the histopathological origin of the cell lines and the sensitivity of the cell lines to Mesna. […] It is further preferred that the patient be administered Mesna for a seven to ten day period. The doses may be cycled. The actual dose will be dependent on the size, type and location of the tumor as well as the overall status of the patient. It is preferred that high concentrations of Mesna be administered intravenously to achieve clamping initially, with further administration of oral doses to maintain the clamped state. […] Cancer cell lines were growth inhibited when Mesna was administered on several consecutive days. Mesna has shown good activity in preventing the urotoxicity of oxazaphosphorine compound.
as §1

[1] = tested on: metastatic and/or relapsed tumors refractory to conventional therapy; assay: Clinical study of oral Mesna as single agent in 14 patients with metastatic and/or relapsed tumors refractory to conventional therapy; format: in vivo, human
Method: From December 1996 to March 1998 a study was performed on 14 ambulatory patients with metastatic and/or relapsed tumors refractory to conventional therapy. Eligibility criteria included histologically-confirmed advanced cancer, patients age was greater than 18 years, with a life expectancy no less than two months. The patients had not undergone major surgery within 2 weeks, or radiotherapy and/or chemotherapy within one month of the study. […] Exclusion criteria included active uncontrolled infection, pregnancy, lactation and any other co-existing medical problems severe enough to prevent full compliance with the study. Objectively measurable disease in the patients was required. All patients gave informed written consent before treatment. 600 mg/m^2 of Mesna was given by oral route four times a day, masked in orange juice for 10 consecutive days. Cycles were repeated every 15 days. No simultaneous chemotherapy and or radiotherapy and no other supportive care was given. The main objective of the study was to determine the anti-tumoral activity and toxicity of Mesna for heavily and or refractory pretreated cancer patients. […] The patients were all previously treated with between two and four different chemotherapy regimens. Mesna was administered as a single agent to all of the patients in the study. The toxic effects of Mesna and number of nodes were assessed during the first cycle of Mesna administration. […] For colorectal cancer a greater than 50% reduction of nodular lesions metastasized to liver was registered, during the second schedule of therapy. For gastric cancer a greater than 50% reduction of a subcutaneous nodule was measured during the second course of Mesna treatment.

[2] = within a few minutes after administration; cited from earlier work
[3] = even in very high dose, i.e. 1000 mg/kg; cited from earlier work
[4] = arsenic treated cells washed and incubated in medium containing 100 uM Mesna

CCCC(=O)O [Butyrate]
concentration at which apoptosis is induced (cells; butyrate alone): greater than 3 mM | concentration giving an effective kill (cells; in the presence of a redox clamping agent): ≥ 0.5 mM

O=C(O)[C@@H](S)[C@@H](S)C(=O)O [DMSA]
effect on stress-induced upswings in antioxidant levels (glutathione, metallothionein) (H4 Rat Hepatoma cells): oppose stress-induced upswings in antioxidant levels

O=S(=O)([O-])CCS.[Na+] [Mesna, Sodium-2-mercaptoethane sulphonate]
elevation in glutathione levels (Human LNCaP cells; [4]): dramatically diminished | fraction of apoptotic cells compared to arsenic alone (Human LNCaP cells; [4]): increased more than two-fold | apoptosis with Mesna alone (Human LNCaP cells; low concentration of Mesna as used in the two-step protocol, background 3 to 5 percent in untreated cells): 11% | effect on stress-induced upswings in antioxidant levels (glutathione, metallothionein) (H4 Rat Hepatoma cells): oppose stress-induced upswings in antioxidant levels | incorporation of 3H-thymidine, proline and uridine (human tumor cell lines): inhibited incorporation | growth of human tumor cell lines in culture (human tumor cell lines; lymphoma, ovarian cancer, colorectal cancer, gastric cancer lines, drug administered on several consecutive days): inhibits growth of several human tumor cell lines | reduction of nodular lesions metastasized to liver ([1]; colorectal cancer patient, 600 mg/m^2 oral four times a day, second schedule of therapy): greater than 50% | reduction of a subcutaneous nodule ([1]; gastric cancer patient, 600 mg/m^2 oral four times a day, second course of treatment): greater than 50% | objective responses ([1]; patients with lung cancer, soft tissue sarcoma, skin metastases of unknown origin, bladder cancer, melanoma and cancer of the cervix): No objective responses were achieved | clinical response in ovarian cancer patients ([1]; two patients, 600 mg/m^2 oral four times a day for 10 days, cycles every 15 days, second and third course respectively): reduced ascites and pain | administered dose transformed into Mesna disulphide [2]: more than 90% | pharmacological and toxicological behaviour [3]: relatively inert substance

[AsH3] [arsenic]
apoptosis of the cells (Human LNCaP cells; 100 uM arsenic for 2 hours, then washed and re-fed with normal medium, 24-hour period): 28%

— patent US20030036513A1, “Method for treating cancer” (priority 1999, published 2003)
